Data from patent US20250154169A1, “COMPOUNDS AND METHODS FOR MODULATING SPLICING” (REMIX THERAPEUTICS INC., priority 2021, published 2025).
Read-outs that look alike come from different tables or passages of the source.

Tests used:
HTT mRNA = experiment: Splicing RT-qPCR assay, HTT canonical (CJ) and alternative (AJ) junction mRNA; format: cell-based, human; settings: Homo sapiens, A673 or K562 cells, 24 hours compound treatment; for IC50: 24 h, read-out: HTT CJ (IC50, decrease in canonical junction mRNA); for AC50: read-out: HTT AJ (AC50, increase in alternative junction mRNA)
Protocol: (§1) Compounds described herein were used to modulate RNA transcript abundance in cells. The expression of a target mRNA was measured by detecting the formation of an exon-exon junction in the canonical transcript (CJ). A compound mediated exon-inclusion event was detected by observing an increase in formation of a new junction with an alternative exon (AJ). Real-time qPCR assays were used to detect these splicing switches and interrogate the potency of various compounds towards different target genes. A high-throughput real time quantitative PCR (RT-qPCR) assay was developed to measure these two isoforms of the mRNA (CJ and AJ) for exemplary genes, such as HTT, SMN2, and MYB, together with a control housekeeping gene, GAPDH or GUSB or PPIA, used for normalization. Briefly, the A673 or K562 cell line was treated with various compounds described herein (e.g., compounds of Formula (I)). After treatment, the levels of the HTT, MYB, or SMN2 mRNA targets were determined from each sample of cell lysate by cDNA synthesis followed by qPCR.
(§2) • Cells-to-CT 1-step kit: ThermoFisher A25602, Cells-to-CT lysis reagent: ThermoFisher 4391851C, TaqMan™ Fast Virus 1-Step Master Mix: ThermoFisher 4444436 • GAPDH: VIC-PL, ThermoFisher 4326317E (Assay: Hs99999905_m1)—used for K562/suspension cell lines • GUSB: VIC-PL, ThermoFisher 4326320E (Assay: Hs99999908_m1)—used for K562/suspension cell lines • PPIA: VIC-PL, ThermoFisher 4326316E (Assay: Hs99999904_m1)—used for A673/adherent cell lines
(§3) The A673 cell line was cultured in DMEM with 10% FBS. Cells were diluted with full growth media and plated in a 96-well plate (15,000 cells in 100 ul media per well). The plate was incubated at 37° C. with 5% CO2 for 24 hours to allow cells to adhere. An 11-point 3-fold serial dilution of the compounds was made in DMSO then diluted in media in an intermediate plate. Compounds were transferred from the intermediate plate to the cell plate with the top dose at a final concentration of 10 uM in the well. Final DMSO concentration was kept at or below 0.25%. The cell plate was returned to the incubator at 37° C. with 5% CO2 for an additional 24 hours.
(§4) The K562 cell line was cultured in IMDM with 10% FBS. For K562, cells were diluted with full growth media and plated in either a 96-well plate (50,000 cells in 50 uL media per well) or a 384-well plate (8,000-40,000 cells in 45 uL media per well). An 11-point 3-fold serial dilution of the compounds were made in DMSO then diluted in media in an intermediate plate. Compound was transferred from the intermediate plate to the cell plate with the top dose at a final concentration of 10 uM in the well. Final DMSO concentration was kept at or below 0.25%. Final volume was 100 uL for 96-well plate and 50 uL for 384-well plate. The cell plate was then placed in an incubator at 37° C. with 5% CO2 for 24 hours.
(§5) The cells were then gently washed with 50 uL-100 uL cold PBS before proceeding to addition of lysis buffer. 30 uL-50 uL of room temperature lysis buffer with DNAse I (and optionally RNAsin) was added to each well. Cells were shaken/mixed thoroughly at room temperature for 5-10 minutes for lysis to take place and then 3 uL-5 uL of room temperature stop solution was added and wells were shaken/mixed again. After 2-5 minutes, the cell lysate plate was transferred to ice for RT-qPCR reaction setup. The lysates could also be frozen at −80° C. for later use.
(§6) In some cases, a direct lysis buffer was used. An appropriate volume of 3× lysis buffer (10 mM Tris, 150 mM NaCl, 1.5%-2.5% Igepal and 0.1-1 U/uL RNAsin, pH 7.4) was directly added to either K562 or A673 cells in media and mixed by pipetting 3 times. The plates were then incubated at room temperature with shaking/rocking for 20-50 minutes to allow for lysis to take place. After this time, the cell lysate plate was transferred to ice to set up for the RT-qPCR reactions. The lysates could also be frozen at −80° C. for later use. […]

MYB mRNA = experiment: Splicing RT-qPCR assay, MYB canonical (CJ) and alternative (AJ) junction mRNA; format: cell-based, human; settings: A673 or K562 cells, 24 hours compound treatment, RT-qPCR; for AC50: read-out: MYB AJ (AC50, increase in alternative junction mRNA); for IC50: read-out: MYB CJ (IC50, decrease in canonical junction mRNA)
Protocol: as §1, §2, §3, §4, §5, §6

SMILES | IC50 (HTT mRNA) | IC50 (MYB mRNA; Homo sapiens, 24 h) | IC50 (MYB mRNA) | AC50 (HTT mRNA) | AC50 (MYB mRNA; Homo sapiens, 24 h) | AC50 (MYB mRNA)
CCNC1CCN(c2ccc(C(=O)Nc3cc(F)c4nc(C)cn4c3)c3nn(CC)cc23)C1 (stereo in doubt) [Compound 399, (S)-2-ethyl-4-(3-(ethylamino)pyrrolidin-1-yl)-N-(8-fluoro-2-methylimidazo[1,2-a]pyridin-6-yl)-2H-indazole-7-carboxamide] | > 10000 nM | 100 to 1000 nM |  | > 10000 nM | 100 to 1000 nM | 
CCNC1CCN(c2ccc(C(=O)Nc3cc(F)c4nc(C)cn4c3)c3nn(CC)cc23)C1 (stereo in doubt) [Compound 400, (R)-2-ethyl-4-(3-(ethylamino)pyrrolidin-1-yl)-N-(8-fluoro-2-methylimidazo[1,2-a]pyridin-6-yl)-2H-indazole-7-carboxamide] | > 10000 nM | < 100 nM |  | > 10000 nM | < 100 nM | 
Cc1cn2cc(NC(=O)c3ccc(N4CCc5[nH]ccc5C4)c4cn(C)nc34)cc(F)c2n1 [Compound 390, N-{8-fluoro-2-methylimidazo[1,2-a]pyridin-6-yl}-2-methyl-4-{1H,4H,6H,7H-pyrrolo[3,2-c]pyridin-5-yl}indazole-7-carboxamide] | > 10000 nM | > 10000 nM |  | > 10000 nM | > 10000 nM | 
Cc1cn2cc(NC(=O)c3ccc(N4CCNCC4)c4cn(C5CCC5)nc34)cc(F)c2n1 [Compound 391, 2-cyclobutyl-N-{8-fluoro-2-methylimidazo[1,2-a]pyridin-6-yl}-4-(piperazin-1-yl) indazole-7-carboxamide] | > 10000 nM | < 100 nM |  | 1000 to 10000 nM | 100 to 1000 nM | 
CCn1cc2c(N3CC[C@@H](NC)C3)ccc(C(=O)Nc3cc(F)c4nc(C)cn4c3)c2n1 [Compound 393, (R)-2-ethyl-N-(8-fluoro-2-methylimidazo[1,2-a]pyridin-6-yl)-4-(3-(methylamino)pyrrolidin-1-yl)-2H-indazole-7-carboxamide] | > 10000 nM |  | 100 to 1000 nM | > 10000 nM |  | 100 to 1000 nM
CCNC1CCN(c2ccc(C(=O)Nc3cc(F)c4nc(C)cn4c3)c3nn(CC)cc23)C1 (centres unmarked) [Compound 396, 2-ethyl-4-[3-(ethylamino)pyrrolidin-1-yl]-N-{8-fluoro-2-methylimidazo[1,2-a]pyridin-6-yl}indazole-7-carboxamide] | > 10000 nM | 100 to 1000 nM |  | > 10000 nM | < 100 nM | 
Cc1cn2cc(NC(=O)c3ccc(N4CCC(N)(CF)CC4)c4cn(C)nc34)cc(F)c2n1 [Compound 397] | 1000 to 10000 nM | 100 to 1000 nM |  | 1000 to 10000 nM | 100 to 1000 nM | 
CCn1cc2c(N3CCC(NC4CC4)C3)ccc(C(=O)Nc3cc(F)c4nc(C)cn4c3)c2n1 (centres unmarked) [Compound 398, 4-[3-(cyclopropylamino)pyrrolidin-1-yl]-2-ethyl-N-{8-fluoro-2-methylimidazo[1,2-a]pyridin-6-yl}indazole-7-carboxamide] | > 10000 nM | 100 to 1000 nM |  | > 10000 nM | 100 to 1000 nM | 
CCn1cc2c(N3CCNC(CO)C3)ccc(C(=O)Nc3cc(F)c4nc(C)cn4c3)c2n1 (centres unmarked) [Compound 403, 2-ethyl-N-{8-fluoro-2-methylimidazo[1,2-a]pyridin-6-yl}-4-[3-(hydroxymethyl)piperazin-1-yl]indazole-7-carboxamide] | 1000 to 10000 nM | 100 to 1000 nM |  | 1000 to 10000 nM | 100 to 1000 nM | 
Cc1nc2c(C)nc(NC(=O)c3ccc(N4CCNCC4)c4cn(C)nc34)cc2o1 [Compound 405, N-{2,4-dimethyl-[1,3]oxazolo[4,5-c]pyridin-6-yl}-2-methyl-4-(piperazin-1-yl) indazole-7-carboxamide] | 1000 to 10000 nM | < 100 nM |  | 1000 to 10000 nM | 100 to 1000 nM | 
CCn1cc2c(N3CC[C@H](NC)C3)cc(F)c(C(=O)Nc3cc(F)c4nc(C)cn4c3)c2n1 [Compound 478, 2-ethyl-6-fluoro-N-{8-fluoro-2-methylimidazo[1,2-a]pyridin-6-yl}-4-[(3S)-3-(methylamino)pyrrolidin-1-yl]indazole-7-carboxamide; bis(trifluoroacetic acid)] | 1000 to 10000 nM | < 100 nM |  | > 10000 nM | 100 to 1000 nM | 

Now from value to molecule, other results behind:

IC50 (HTT mRNA) | IC50 (MYB mRNA; Homo sapiens, 24 h) | IC50 (MYB mRNA) | SMILES | AC50 (HTT mRNA) | AC50 (MYB mRNA; Homo sapiens, 24 h) | AC50 (MYB mRNA)
1000 to 10000 nM | < 100 nM |  | C=CCn1cc2c(N3CCNCC3)ccc(C(=O)Nc3cc(F)c4nc(C)cn4c3)c2n1 [Compound 392, N-{8-fluoro-2-methylimidazo[1,2-a]pyridin-6-yl}-4-(piperazin-1-yl)-2-(prop-2-en-1-yl) indazole-7-carboxamide] | 1000 to 10000 nM | < 100 nM | 
1000 to 10000 nM | 100 to 1000 nM |  | CCn1cc2c(N3CCC4(CCN4)CC3)ccc(C(=O)Nc3cc(F)c4nc(C)cn4c3)c2n1 [Compound 394, 4-{1,7-diazaspiro[3.5]nonan-7-yl}-2-ethyl-N-{8-fluoro-2-methylimidazo[1,2-a]pyridin-6-yl}indazole-7-carboxamide] | 1000 to 10000 nM | 100 to 1000 nM | 
1000 to 10000 nM | < 100 nM |  | CCn1cc2c(N3CCC(N(C)C)CC3)ccc(C(=O)Nc3cc(F)c4nc(C)cn4c3)c2n1 [Compound 395, 4-[4-(dimethylamino)piperidin-1-yl]-2-ethyl-N-{8-fluoro-2-methylimidazo[1,2-a]pyridin-6-yl}indazole-7-carboxamide] | 1000 to 10000 nM | < 100 nM | 
100 to 1000 nM | < 100 nM |  | CCn1cc2c(N3CCC4(CC3)CCN4C)ccc(C(=O)Nc3cc(F)c4nc(C)cn4c3)c2n1 [Compound 401, 2-ethyl-N-(8-fluoro-2-methylimidazo[1,2-a]pyridin-6-yl)-4-(1-methyl-1,7-diazaspiro[3.5]nonan-7-yl)-2H-indazole-7-carboxamide 2,2,2-trifluoroacetate] | 100 to 1000 nM | < 100 nM | 
100 to 1000 nM | < 100 nM |  | Cc1cn2cc(NC(=O)c3ccc(N4CCC(N)CC4)c4cn(C)nc34)cc(F)c2n1 [Compound 402, 4-(4-aminopiperidin-1-yl)-N-{8-fluoro-2-methylimidazo[1,2-a]pyridin-6-yl}-2-methylindazole-7-carboxamide] | 100 to 1000 nM | < 100 nM | 
100 to 1000 nM | < 100 nM |  | Cn1cc2c(N3CCNCC3)ccc(C(=O)Nc3cc(F)c4nc(CO)oc4c3)c2n1 [Compound 406, N-[4-fluoro-2-(hydroxymethyl)-1,3-benzoxazol-6-yl]-2-methyl-4-(piperazin-1-yl) indazole-7-carboxamide] | 100 to 1000 nM | < 100 nM | 
